Converted amounts (≈) assume the structure as drawn. “Also recorded” adds a separate entry of the source.
Tests used:
[1] = Solubility in SGF (suspension rotated, filtrate concentration by HPLC); type: physicochemical; settings: for Solubility in SGF: SGF (simulated gastric fluids); for solubility in SGF compared with Form A in WO2015073779: SGF at 1 h, 4 h and 24 h
Method: Certain amount of Form CS1 in the present disclosure and Form A in WO2015073779 were weighted into vials and suspended in SGF (Simulated Gastric Fluids). The systems were rotated on the rotator at a rate of 25 r/min. After equilibrated for 1 h, 4 h and 24 h, the suspension was separated through 0.45 μm PTFE centrifugal filter and the filtrate was collected. The concentration of the filtrates was measured by HPLC.
(§1) Certain amount of Form CS8 in the present disclosure and Form A in WO2015073779 was weighted into vials and then suspended in SGF (Simulated gastric fluids) and water. The systems were rotated on the rotator at a rate of 25 r/min. After equilibrated for 1 h, 4 h and 24 h, the suspension was separated through 0.45 μm PTFE centrifugal filter and the filtrate was collected. The concentration of the filtrates was measured by HPLC.

[2] = Stability comparison experiment: slurry in water at room temperature, about 40 days; type: physicochemical
Method: Stability comparison experiment: about 4 mg of Form CS2 and Form A in WO2015073779 was weighted into a 1.5 mL glass vial and 1.0 mL of water was added into the vial. The solid form of the initial sample was tested. After stirring at a rate of 500 r/min at room temperature for about 40 days, the solid form of the sample was tested again. The XRPD pattern overlay is depicted in FIG. 13.

[3] = Hygroscopicity by dynamic vapor sorption (DVS); type: physicochemical
Method: Dynamic Vapor Sorption (DVS) was measured via an SMS (Surface Measurement Systems Ltd.) intrinsic DVS instrument. Its control software is DVS-Intrinsic control software, and its analysis software is DVS-Intrinsic Analysis software. Typical Parameters for DVS test are as follows: • Temperature: 25° C. • Gas and flow rate: N2, 200 mL/min • dm/dt: 0.002%/min • RH range: 0% RH to 95% RH
Dynamic vapor sorption (DVS) was applied to test hygroscopicity of Form CS2 with 10 mg of sample.
Dynamic vapor sorption (DVS) was applied to test hygroscopicity of Form CS8 with 10 mg of sample and the DVS curve is depicted in FIG. 14. The weight gain of Form CS8 under 80% RH is 0.06%, which means Form CS8 is non hygroscopic or almost non hygroscopic.
Description and definition of hygroscopicity in the general principle 9103 of Chinese Pharmacopoeia: • deliquescent: Sufficient water is absorbed to form a liquid; • very hygroscopic: Increase in mass is equal to or greater than 15 percent; • hygroscopic: Increase in mass is less than 15 percent and equal to or greater than 2 percent; • slightly hygroscopic: Increase in mass is less than 2 percent and equal to or greater than 0.2 percent. • non hygroscopic or almost non hygroscopic: Increase in mass is less than 0.2%.

[4] = Mechanical stability experiment: manual grinding for 5 minutes in a mortar; type: physicochemical; settings: XRPD
Method: Mechanical stability experiment: Form CS2 was manually ground for 5 minutes in a mortar. The XRPD pattern collected before and after grinding is depicted in FIG. 12.

[5] = Storage stability of the crystalline form (XRPD before and after storage); type: physicochemical; settings: for Solid Form after storage: XRPD
Method: Form CS1 in the present disclosure was stored under 25° C./60% RH and 40° C./75% RH for 1 month. The XRPD pattern was collected before and after storage, and the XRPD pattern overlay is depicted in FIG. 10.
Accelerated experiment: Form CS2 was stored under 25° C./60% RH, 40° C./75% RH and 60° C./75% RH for 1 month. The XRPD pattern was collected before and after storage, and the overlay is depicted in FIG. 11.
Form CS8 of the present disclosure was stored under 25° C./60% RH, 40° C./75% RH and 60° C./75% RH for 20 days.

[6] = Pressure stability: tableting under 3 KN, 7 KN and 14 KN, XRPD before and after; type: physicochemical; settings: 7 KN and 14 KN pressure
Excerpt: Form CS2 was compressed using an ENERPAC manual tablet press under 3 KN, 7 KN and 14 KN pressure with φ6 mm round tooling (to ensure isotropy of the tablet). XRPD pattern overlay depicted in FIG. 15 was collected by a […] Panalytical Empyrean X-ray diffractometer before and after tableting.

[7] = Solubility in water (suspension rotated, filtrate concentration by HPLC); type: physicochemical
Method: as §1

[8] = as disclosed in WO2015073779; cited from earlier work
[9] = 25° C./60% RH, 40° C./75% RH and 60° C./75% RH

Solubility in SGF ([1]; equilibrated 1 h) [µg/mL] | Solubility in SGF ([1]; equilibrated 4 h) [µg/mL] | Solubility in SGF ([1]; equilibrated 24 h) [µg/mL] | Solid Form after storage ([5]; 25° C./60% RH, 1 month) | time the form keeps stable [5, 9] | Solid Form after storage ([5]; 40° C./75% RH, 1 month) | solubility in SGF compared with Form A in WO2015073779 [1] | SMILES | further results
20 (≈ 65.2 µM) | 22 (≈ 71.7 µM) | 33 (≈ 108 µM) |  | at least 20 days |  | higher | O=C(O)CNC(=O)c1ncc(-c2cccc(Cl)c2)cc1O [Form CS8, {[5-(3-chlorophenyl)-3-hydroxypyridine-2-carbonyl]amino} acetic acid] | weight gain at 90% RH ([3]; DVS, 25° C.): 0.08%; weight gain at 80% RH ([3]; DVS, 25° C., 10 mg of sample): 0.06%; hygroscopicity class (Chinese Pharmacopoeia general principle 9103) ([3]; from weight gain under 80% RH): non hygroscopic or almost non hygroscopic (Increase in mass is less than 0.2%); solubility in water compared with Form A in WO2015073779 [7]: higher
23 (≈ 75 µM) | 26 (≈ 84.8 µM) | 19 (≈ 61.9 µM) | Form CS1, no form change |  | Form CS1, no form change | higher | O=C(O)CNC(=O)c1ncc(-c2cccc(Cl)c2)cc1O [Form CS1, {[5-(3-chlorophenyl)-3-hydroxypyridine-2-carbonyl]amino} acetic acid] | time the form keeps stable ([5]; 25° C./60% RH and 40° C./75% RH): at least 1 month

Continued, compound first:

SMILES | Solubility in SGF ([1]; equilibrated 1 h) [µg/mL] | Solubility in SGF ([1]; equilibrated 4 h) [µg/mL] | Solubility in SGF ([1]; equilibrated 24 h) [µg/mL] | Solid Form after storage ([5]; 25° C./60% RH, 1 month) | time the form keeps stable [5, 9] | Solid Form after storage ([5]; 40° C./75% RH, 1 month) | solubility in SGF compared with Form A in WO2015073779 [1] | further results
O=C(O)CNC(=O)c1ncc(-c2cccc(Cl)c2)cc1O [Form A in WO2015073779, {[5-(3-chlorophenyl)-3-hydroxypyridine-2-carbonyl]amino} acetic acid, reference compound] | 8.5 (≈ 27.7 µM) | 8.6 (≈ 28 µM) | 3.8 (≈ 12.4 µM) |  |  |  |  | solid form after slurry in water ([2]; water, 500 r/min, room temperature, XRPD): almost completely converted to Form CS2
O=C(O)CNC(=O)c1ncc(-c2cccc(Cl)c2)cc1O [Form CS2, {[5-(3-chlorophenyl)-3-hydroxypyridine-2-carbonyl]amino} acetic acid] |  |  |  | Form CS2, no form change | at least 1 month | Form CS2, no form change |  | weight gain from 40% RH to 80% RH ([3]; DVS, 25° C., 10 mg of sample): 0.11%; hygroscopicity (in words) ([3]; from weight gain 40% RH to 80% RH): low hygroscopic; stability in water compared with Form A in WO2015073779 ([2]; slurry in water): more stable; crystal structure after manual grinding [4]: doesn't change; Solid Form after storage ([5]; 25° C./60% RH, 20 days): Form CS8, no form change; Solid Form after storage ([5]; 40° C./75% RH, 20 days): Form CS8, no form change; Solid Form after storage ([5]; 60° C./75% RH, 1 month): Form CS2, no form change; Solid Form after storage ([5]; 60° C./75% RH, 20 days): Form CS8, no form change; form change after tableting [6]: no form change; also recorded: stable
O=C(O)CNC(=O)c1ncc(-c2cccc(Cl)c2)cc1O [Form B, {[5-(3-chlorophenyl)-3-hydroxypyridine-2-carbonyl]amino} acetic acid] |  |  |  |  |  |  |  | conversion in slurry at high temperature [8]: may convert to Form A

Reference: US10703724B2, “Crystalline forms of {[5-(3-chlorophenyl)-3-hydroxypyridine-2-carbonyl] amino} acetic acid and processes for preparation thereof” (Crystal Pharmaceutical (Suzhou) Co., Ltd., priority 2016, dated 2020)
